Test results taken from patent publication US20250288603A1, “ANIMAL FOOD COMPOSITION COMPRISING A SOURCE OF GLYCYRRHIZIN” (MARS, INCORPORATED, priority 2022, published 2025).

Tests used:
healthy adult dogs [1] = assay: Glycyrrhizin safety study: systolic blood pressure (oscillometric method); format: in vivo, dog; conditions: for effect on blood pressure, D0 versus any later time point: adult dogs, 0.2, 0.4 and 0.6 mg/kg Bwt/day, 28 days each; for overall mean systolic blood pressure: dogs
Text: (§1) Dogs. Sixteen privately owned healthy adult dogs, both male and female, were included in the study. In particular, the dogs were Beagles, Brittany spaniels or Dachshunds weighing between 5 and 21 kg. Twelve dogs were females and four dogs were males.
(§2) Glycyrrhizin Source. The glycyrrhizin source was provided by a licorice root extract comprising 12% glycyrrhizin formulated in gelatin capsules. The licorice root extract was commercially obtained from Naturex (Avignon, France), product reference DAB40178.
(§3) Commercially available pharmaceutical grade gelatin capsules (Capsuline, Dania Beach, Florida, US) were filled to capacity with precisely weight mixtures of licorice powder and 100% pure maltodextrin powder (Bulk Powders, Colchester, UK). The weighed combinations of licorice and maltodextrin powders were prepared in such a way that, when mixed together and placed in the capsules, provided the dogs with daily glycyrrhizin doses according to the schedule of 0.2 mg/kg Bwt/day, followed by 0.4 mg/kg Bwt/day, followed by 0.6 mg/kg Bwt/day.
(§4) Dosage. The doses to be administered to each dog were calculated based on five different bodyweight groups. Separate capsules were weighed out for each group. The licorice root extract was mixed with maltodextrin order to deliver the same volume of overall powdered material to each dog. Capsules were fed to the dogs inside a meatball of wet petfood.
(§5) In total, three different doses of glycyrrhizin were fed to the dogs, in each case for 28 days. These dosages were 0.2 mg/kg of Bwt/day, 0.4 mg/kg of Bwt/day, and 0.6 mg/kg of Bwt/day.
(§6) Each of the dogs underwent the following protocol cycle, which was repeated for each of the tested concentrations. The first cycle was dosed at 0.2 mg of glycyrrhizin (Gly)/kg Bwt/day. The second cycle was dosed at 0.4 mg Gly/kg Bwt/day. The third cycle was dosed at 0.6 mg Gly/kg Bwt/day.
[…]: Baseline measurements were taken: blood pressure and potassium, sodium and calcium, creatinine and aldosterone concentrations in the blood and urine.
Day 0: Dosing of licorice began (the concentration of glycyrrhizin is adapted according to the first, second or third cycle of the protocol, as indicated above). One dose was provided to each dog per day, with their morning meal.
Days 1-27: One dose was provided to each dog per day, with their morning meal.
(§7) Days 2, 4, 7, 14, 21 and 28: Blood pressure and potassium, sodium and calcium, creatinine and aldosterone concentrations in the blood and urine measurements were taken.
Day 28: Washout began and the dogs returned to their maintenance diet alone, i.e., no more licorice was fed to them. The washout period lasted two weeks. At days 34 and 41 blood pressure and potassium, sodium and calcium, creatinine and aldosterone concentrations in the blood and urine measurements were taken again.
Protocol Details. The licorice root extract was dosed according to the given glycyrrhizin (Gly) concentrations for each cycle of the protocol in sequence: 0.2 mg/kg Bwt/day, 0.4 mg/kg Bwt/day, and 0.6 mg/kg Bwt/day.
Blood pressure was measured for each animal on multiple occasions, the first reading being discarded. BP was measured via the Oscillometric method. Each measurement, if it was shown that a dog's average blood pressure has risen to a potentially deleterious level (normally >160 mmgHg), could result in removal of a dog from the study (temporarily or permanently), according to veterinarian's discretion. All dogs were habituated to the Oscillometic device and the process of BP measurement before the start of the study. If there was evidence of stress for any dog before or during the BP procedure, the procedure for that dog was stopped and restarted when the dog was calmed again. Where necessary a dog could be given interim intensive habituation. […] Typical blood pressure ranges for the 3 breeds used were known and were considered when judging the normality of the BP measurements taken during the study. […]

healthy adult dogs [2] = assay: Glycyrrhizin safety study: fractional potassium excretion; format: in vivo, dog; conditions: for effect on fractional potassium excretion, D0 versus any later time point: adult dogs, 0.2, 0.4 and 0.6 mg/kg Bwt/day, 28 days each; for overall mean fractional potassium excretion: dogs
Text: as §1, §2, §3, §4, §5, §6, §7
Small volume blood samples (4 ml) were taken on the days indicated in the protocol description above in order to determine blood potassium, sodium and calcium, creatinine and aldosterone concentration. Free catch urine (minimum 3 ml) was conducted on each day as indicated above in order to determine concentrations of urinary potassium, sodium and calcium. Urinary creatinine concentrations were also measured so that Fractional Excretion Rate (FER) for sodium, potassium and calcium could be calculated.
FER is calculated according to the equation: […]
Statistics: A linear mixed model was used for assessing the effect of Diet (Glycyrrhizin dose). Animal was modelled as random term. Tukey HSD was used for alpha correction for multiple comparisons. Level of significance was set at 5% for two-sided test.
Fractional Potassium Excretion. The results are expressed in percentage of the potassium excreted in the urine as compared to the amount of potassium filtered and retained by the kidneys.

healthy adult dogs [3] = assay: Glycyrrhizin safety study: plasma aldosterone concentration; format: in vivo, dog; conditions: adult dogs, 0.2, 0.4 and 0.6 mg/kg Bwt/day, 28 days each
Text: as §1, §2
Commercially available pharmaceutical grade gelatin capsules (Capsuline, Dania Beach, Florida, US) were filled to capacity with precisely weight mixtures of licorice powder and 100% pure maltodextrin powder (Bulk Powders, Colchester, UK). […]
Dosage. The doses to be administered to each dog were calculated based on five different bodyweight groups. […]
Small volume blood samples (4 ml) were taken on the days indicated in the protocol description above in order to determine blood potassium, sodium and calcium, creatinine and aldosterone concentration. […] Urinary creatinine concentrations were also measured so that Fractional Excretion Rate (FER) for sodium, potassium and calcium could be calculated. […]

[4] = dogs; cited from earlier work
[5] = 0.2 mg Gly/kg Bwt/day oral, Day 0
[6] = 0.2 mg Gly/kg Bwt/day oral, Day 2
[7] = 0.2 mg Gly/kg Bwt/day oral, Day 4
[8] = 0.2 mg Gly/kg Bwt/day oral, Day 7
[9] = 0.2 mg Gly/kg Bwt/day oral, Day 14
[10] = 0.2 mg Gly/kg Bwt/day oral, Day 21
[11] = 0.2 mg Gly/kg Bwt/day oral, Day 28
[12] = 0.4 mg Gly/kg Bwt/day oral, Day 0
[13] = 0.4 mg Gly/kg Bwt/day oral, Day 2
[14] = 0.4 mg Gly/kg Bwt/day oral, Day 4
[15] = 0.4 mg Gly/kg Bwt/day oral, Day 7
[16] = 0.4 mg Gly/kg Bwt/day oral, Day 14
[17] = 0.4 mg Gly/kg Bwt/day oral, Day 21
[18] = 0.4 mg Gly/kg Bwt/day oral, Day 28
[19] = 0.6 mg Gly/kg Bwt/day oral, Day 0
[20] = 0.6 mg Gly/kg Bwt/day oral, Day 2
[21] = 0.6 mg Gly/kg Bwt/day oral, Day 4
[22] = 0.6 mg Gly/kg Bwt/day oral, Day 7
[23] = 0.6 mg Gly/kg Bwt/day oral, Day 14
[24] = 0.6 mg Gly/kg Bwt/day oral, Day 21
[25] = 0.6 mg Gly/kg Bwt/day oral, Day 28

## CC1(C)[C@@H](O[C@H]2O[C@H](C(=O)O)[C@@H](O)[C@H](O)[C@H]2O[C@@H]2O[C@H](C(=O)O)[C@@H](O)[C@H](O)[C@H]2O)CC[C@]2(C)[C@H]3C(=O)C=C4[C@@H]5C[C@@](C)(C(=O)O)CC[C@]5(C)CC[C@@]4(C)[C@]3(C)CC[C@@H]12 [Gly, glycyrrhizin]
Healthy adult dogs [1]
  effect on blood pressure, D0 versus any later time point: no significant difference
Healthy adult dogs [1]; listed as Glycyrrhizin
  effect on blood pressure, D0 versus any later time point: no significant impact
Healthy adult dogs [1]; [5]
  overall mean systolic blood pressure: 120 mmHg
Healthy adult dogs [1]; [6]
  overall mean systolic blood pressure: 127 mmHg
Healthy adult dogs [1]; [7]
  overall mean systolic blood pressure: 125 mmHg
Healthy adult dogs [1]; [8]
  overall mean systolic blood pressure: 126 mmHg
Healthy adult dogs [1]; [9]
  overall mean systolic blood pressure: 126 mmHg
Healthy adult dogs [1]; [10]
  overall mean systolic blood pressure: 122 mmHg
Healthy adult dogs [1]; [11]
  overall mean systolic blood pressure: 121 mmHg
Healthy adult dogs [1]; [12]
  overall mean systolic blood pressure: 118 mmHg
Healthy adult dogs [1]; [13]
  overall mean systolic blood pressure: 117 mmHg
Healthy adult dogs [1]; [14]
  overall mean systolic blood pressure: 119 mmHg
Healthy adult dogs [1]; [15]
  overall mean systolic blood pressure: 125 mmHg
Healthy adult dogs [1]; [16]
  overall mean systolic blood pressure: 122 mmHg
Healthy adult dogs [1]; [17]
  overall mean systolic blood pressure: 120 mmHg
Healthy adult dogs [1]; [18]
  overall mean systolic blood pressure: 124 mmHg
Healthy adult dogs [1]; [19]
  overall mean systolic blood pressure: 125 mmHg
Healthy adult dogs [1]; [20]
  overall mean systolic blood pressure: 119 mmHg
Healthy adult dogs [1]; [21]
  overall mean systolic blood pressure: 123 mmHg
Healthy adult dogs [1]; [22]
  overall mean systolic blood pressure: 125 mmHg
Healthy adult dogs [1]; [23]
  overall mean systolic blood pressure: 123 mmHg
Healthy adult dogs [1]; [24]
  overall mean systolic blood pressure: 124 mmHg
Healthy adult dogs [1]; [25]
  overall mean systolic blood pressure: 122 mmHg
Healthy adult dogs [2]
  effect on fractional potassium excretion, D0 versus any later time point: no significant difference
Healthy adult dogs [2]; listed as Glycyrrhizin
  effect on fractional potassium excretion, D0 versus any later time point: no significant impact
Healthy adult dogs [2]; [5]
  overall mean fractional potassium excretion: 16.54%
Healthy adult dogs [2]; [6]
  overall mean fractional potassium excretion: 15.74%
Healthy adult dogs [2]; [7]
  overall mean fractional potassium excretion: 15.59%
Healthy adult dogs [2]; [8]
  overall mean fractional potassium excretion: 15.06%
Healthy adult dogs [2]; [9]
  overall mean fractional potassium excretion: 13.33%
Healthy adult dogs [2]; [10]
  overall mean fractional potassium excretion: 20.02%
Healthy adult dogs [2]; [11]
  overall mean fractional potassium excretion: 16.54%
Healthy adult dogs [2]; [12]
  overall mean fractional potassium excretion: 16.02%
Healthy adult dogs [2]; [13]
  overall mean fractional potassium excretion: 15.56%
Healthy adult dogs [2]; [14]
  overall mean fractional potassium excretion: 16.02%
Healthy adult dogs [2]; [15]
  overall mean fractional potassium excretion: 15.72%
Healthy adult dogs [2]; [16]
  overall mean fractional potassium excretion: 16.87%
Healthy adult dogs [2]; [17]
  overall mean fractional potassium excretion: 16.09%
Healthy adult dogs [2]; [18]
  overall mean fractional potassium excretion: 16.27%
Healthy adult dogs [2]; [19]
  overall mean fractional potassium excretion: 16.48%
Healthy adult dogs [2]; [20]
  overall mean fractional potassium excretion: 18.08%
Healthy adult dogs [2]; [21]
  overall mean fractional potassium excretion: 17.48%
Healthy adult dogs [2]; [22]
  overall mean fractional potassium excretion: 13.15%
Healthy adult dogs [2]; [23]
  overall mean fractional potassium excretion: 15.64%
Healthy adult dogs [2]; [24]
  overall mean fractional potassium excretion: 14.93%
Healthy adult dogs [2]; [25]
  overall mean fractional potassium excretion: 16.48%
Healthy adult dogs [3]
  effect on plasma aldosterone concentration, D0 versus any later time point: no significant difference
Healthy adult dogs [3]; listed as Glycyrrhizin
  effect on plasma aldosterone concentration, D0 versus any later time point: no significant impact
[4]
  Presumed Safe Intake (PSI): 1 mg/kg of complete feed
  Presumed Safe Intake (PSI), estimated amount per bodyweight: ~0.02 mg/kg of bodyweight (Bwt) per day
  Presumed Safe Intake (PSI), estimated daily amount: ~0.3 mg/day
